According to PMC8151276, “An Integrated Approach toward NanoBRET Tracers for Analysis of GPCR Ligand Engagement” (Molecules, 2021):

What was measured:
NPFFR1 = biological target: T1, NPFFR1 (Homo sapiens, UniProt Q9GZQ6); assay: NanoBRET screen HiBiT-NPFFR1 in HEK293; format: binding
T1 construct: purchased Promega (in-house HiBiT-GPCR construct library, NanoBRET)
Protocol: (§1) Each tracer candidate was screened across the entire library of HiBiT-GPCR constructs using NanoBRET as the detection modality. As depicted in Figure 4A, the specificity of interactions was evaluated through decrease in BRET due to competitive displacement of a bound tracer by excess parental compound. Each tracer was analyzed for binding to each HiBiT-GPCR fusion in the absence and in the presence of competing parental compound. Briefly, HEK293 cells were transfected with HiBiT-GPCR constructs diluted into promoterless DNA to reduce expression and maximize translocation to the cell surface. Each tracer candidate was then screened at concentrations of 1 μM and 0.1 μM across cells expressing these fusions. Cells were treated for 1.5 h with tracer either alone or in the presence of 20 μM competing parental compound (i.e., control). BRET was measured upon addition of purified LgBiT and subsequent complementation with HiBiT genetically fused to a GPCR. The specificity of interactions was assessed through a decrease in BRET signal due to competitive displacement of the bound tracer. To further gauge the robustness of these interactions, the fold response over the control (i.e., BRETtracer/BRETcontrol) was calculated. We chose a 1.5-fold response, which translates to ≥7-fold signal over noise as the minimal threshold required to score an interaction as positive.
(§2) HiBiT-GPCR DNA constructs were diluted in 10 mM Tris pH 8 to a final concentration of 0.01 μg/μL, arrayed in 96-well plates and stored at −20 °C. For transfection, HEK293 cells were suspended in Opti-MEM (without phenol red) supplemented with 2% fetal bovine serum (Seradigm) and 100 units/mL penicillin–streptomycin (Gibco) at a final concentration of 220,000 cells/mL and dispensed into white 96-well plates at 90 μL/well. Subsequent transfections and screens were carried using an Agilent Bravo Automated Liquid Handling Platform. First, the 96-well HiBiT DNA arrays were diluted 25-fold in Opti-MEM (without serum or phenol red) to a final concentration of 0.0004 μg/μL and 20 μL of the diluted DNAs were transferred into new 96-well plates. Next, promoterless carrier DNA (1 μg/μL) was diluted 25-fold (0.04 μg/μL) and then dispensed into the diluted arrays at 20 μL/well. Following brief mixing, Viafect transfection reagent (Promega) diluted 16-fold into Opti-MEM was dispensed into the plates at 40 μL/well. After mixing by pipetting, plates were incubated for 10 min on the pipetting station deck. The DNA-transfection reagent complexes were then added to plates containing cells. To facilitate the screen, 10 μL of DNA-transfection reagent complexes were added in duplicates to the top 4 and bottom 4 rows, resulting in two identical 48-well arrays per plate. Plates with transfected cells were incubated for 18–20 h at 37 °C/5% CO2. A screen of each tracer across the entire library using two different concentrations requires duplicate plates of transfected cells. Depending on the number of tracers being screened, transfections can be scaled up using the same ratios. The next day, for each tracer, four 20× screening solutions in tracer dilution buffer (Promega) were prepared: two duplicates at final concentration of 20 μM and two duplicates at a final concentration of 2 μM. […] The four resulting solutions were diluted 4-fold in Opti-MEM without serum or phenol red to generate 5× solutions (5 µM and 0.5 µM tracer +/− 100 μM competing compound). To screen the library, a BioTek MultiFlo FX liquid dispenser was used to dispense 22.5 µL of tracer solution to the top 4 rows and 22.5 µL tracer + competing compound solution to the 4 bottom rows. Plates were briefly mixed on an orbital shaker and incubated for 1.5 h at room temperature. […] Plates were briefly mixed on an orbital shaker and incubated for 15 min to allow complementation.

HTR2C = biological target: T2, HTR2C (Homo sapiens, UniProt P28335); assay: NanoBRET screen HiBiT-HTR2C in HEK293; format: binding
T2 construct: purchased Promega (in-house HiBiT-GPCR construct library, NanoBRET)
T2 sequence (P28335 33-458): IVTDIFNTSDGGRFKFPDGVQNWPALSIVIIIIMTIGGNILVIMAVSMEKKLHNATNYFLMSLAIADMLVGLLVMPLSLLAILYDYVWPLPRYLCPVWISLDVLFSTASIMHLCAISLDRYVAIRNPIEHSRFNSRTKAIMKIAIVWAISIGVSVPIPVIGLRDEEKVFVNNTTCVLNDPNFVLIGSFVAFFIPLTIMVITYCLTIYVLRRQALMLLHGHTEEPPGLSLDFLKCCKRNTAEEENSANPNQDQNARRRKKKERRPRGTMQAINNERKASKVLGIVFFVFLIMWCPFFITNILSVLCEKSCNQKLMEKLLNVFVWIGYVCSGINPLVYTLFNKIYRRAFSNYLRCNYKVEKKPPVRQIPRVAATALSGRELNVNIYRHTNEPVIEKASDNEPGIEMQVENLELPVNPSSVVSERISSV
Protocol: as §1, §2

T1 sequence (Q9GZQ6 whole entry): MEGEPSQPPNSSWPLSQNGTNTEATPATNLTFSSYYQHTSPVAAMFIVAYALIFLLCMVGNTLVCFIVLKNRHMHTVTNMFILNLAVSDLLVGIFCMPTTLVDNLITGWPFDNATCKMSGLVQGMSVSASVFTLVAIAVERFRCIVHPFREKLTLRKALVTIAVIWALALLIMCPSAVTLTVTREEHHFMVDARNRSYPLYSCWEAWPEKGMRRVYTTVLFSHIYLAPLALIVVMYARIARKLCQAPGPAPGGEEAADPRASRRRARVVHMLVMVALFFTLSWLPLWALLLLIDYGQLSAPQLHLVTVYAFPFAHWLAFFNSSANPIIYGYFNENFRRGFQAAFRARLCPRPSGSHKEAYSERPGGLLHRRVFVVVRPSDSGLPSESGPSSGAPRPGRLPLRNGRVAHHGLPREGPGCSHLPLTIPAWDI

| SMILES | NanoBRET Fold Response (NPFFR1; NPFFR1, tracer 0.1μM) | NanoBRET Fold Response (NPFFR1; NPFFR1, tracer 1μM) | NanoBRET Fold Response (HTR2C; HTR2C, tracer 0.1μM) | NanoBRET Fold Response (HTR2C; HTR2C, tracer 1μM) | also measured |
| --- | --- | --- | --- | --- | --- |
| O=C(CCc1ccc2n1[B-](F)(F)[N+]1=C(c3ccc[nH]3)C=CC1=C2)NCc1ccc(C(=O)NCCOCCC(=O)N[C@@H]2CC[C@@]3(O)[C@H]4Cc5ccc(O)c6c5[C@@]3(CCN4CC3CC3)[C@H]2O6)cc1 [Naltrexone-3-NB590] | 0.94 | 1.15 | 0.79 | 1.03 |  |
| CCCn1c(=O)c2[nH]c(-c3ccc(OCC(=O)NCCNC(=O)CCOCCNC(=O)c4ccc(CNC(=O)CCc5ccc6n5[B-](F)(F)[N+]5=C(c7ccc[nH]7)C=CC5=C6)cc4)cc3)nc2n(CCC)c1=O [XAC-3-NB590] | 0.99 | 1.01 | 1.45 | 0.88 |  |
| CC(C)N(CC[C@H](c1ccccc1)c1cc(CCNC(=O)c2ccc(CNC(=O)CCc3ccc4n3[B-](F)(F)[N+]3=C(c5ccc[nH]5)C=CC3=C4)cc2)ccc1O)C(C)C [Tolterodine-BZ-NB590] | 0.96 | 1.02 | 0.86 | 1.55 |  |
| N#CN/C(=N\CCNC(=O)c1ccc(N)cc1)NCCCOc1cccc(CN2CCCCC2)c1 [Aminopotentidine (unmodified)] |  |  |  |  | NanoBRET Fold Response (HTR2C; HTR2C, other tracers/Aminopotentidine (unmodified), 0.1μM): 1.48; NanoBRET Fold Response (HTR2C; HTR2C, other tracers/Aminopotentidine (unmodified), 1μM): 1.66 |
| COc1ccc2[nH]c(-c3ccc(CNC(=O)CCOCCOCCOCCOCCNC(=O)CCc4ccc5n4[B-](F)(F)[N+]4=C(c6ccc[nH]6)C=CC4=C5)cc3)c(CCNC(C)=O)c2n1 [AzomelatoninICO9-2-NB590] |  |  |  |  | NanoBRET Fold Response (NPFFR1; 1μM tracer): 1.01; NanoBRET Fold Response (HTR2C; 0.1μM tracer): 1.02; NanoBRET Fold Response (HTR2C; 1μM tracer): 1.10 |
| CN1CCN(C2=Nc3cc(Cl)ccc3N(CC(=O)NCCOCCOCCOCCOCCNC(=O)CCc3ccc4n3[B-](F)(F)[N+]3=C(c5ccc[nH]5)C=CC3=C4)c3ccccc32)CC1 [Clozapine-c-2-NB590] |  |  |  |  | NanoBRET Fold Response (NPFFR1; NPFFR1, 0.1μM tracer): 1.02; NanoBRET Fold Response (NPFFR1; NPFFR1, 1μM tracer): 1.00 |
| COc1ccccc1N1CCN(CCCCN2C(=O)c3ccc(CNC(=O)CCOCCNC(=O)c4ccc(CNC(=O)CCc5ccc6n5[B-](F)(F)[N+]5=C(c7ccc[nH]7)C=CC5=C6)cc4)cc3C2=O)CC1 [NAN-190-3-NB590] | 1.06 | 0.96 | 1.04 | 1.06 |  |
| Cc1nc2n(c(=O)c1CCN1CCC(c3noc4cc(F)ccc34)CC1)CCCC2OC(=O)NCCOCCOCCOCCOCCNC(=O)CCc1ccc2n1[B-](F)(F)[N+]1=C(c3ccc[nH]3)C=CC1=C2 (centres unmarked) [Risperidone-2-NB590] | 0.97 | 0.95 | 1.26 | 2.15 |  |
| O=C(CCOCCOCCOCCOCCNC(=O)CCc1ccc2n1[B-](F)(F)[N+]1=C(c3ccc[nH]3)C=CC1=C2)NCCCN1CCN(C2=Nc3ccccc3Oc3ccc(Cl)cc32)CC1 [Loxapine-a-2-NB590] | 0.98 | 1.00 | 1.60 | 1.62 |  |
| COc1ccccc1N1CCN(CCCCN2C(=O)c3ccc(CNC(=O)CCOCCOCCOCCOCCNC(=O)CCc4ccc5n4[B-](F)(F)[N+]4=C(c6ccc[nH]6)C=CC4=C5)cc3C2=O)CC1 [NAN-190-2-NB590] | 0.95 | 1.02 | 1.00 | 1.14 |  |
| CC(C)N(CC[C@H](c1ccccc1)c1cc(CCNC(=O)CCOCCOCCOCCOCCNC(=O)CCc2ccc3n2[B-](F)(F)[N+]2=C(c4ccc[nH]4)C=CC2=C3)ccc1O)C(C)C [Tolterodine-2-NB590] | 1.19 |  | 1.09 | 1.01 |  |
| N#CN=C(NCCCOc1cccc(CN2CCCCC2)c1)NCCNC(=O)CCOCCOCCOCCOCCNC(=O)CCc1ccc2n1[B-](F)(F)[N+]1=C(c3ccc[nH]3)C=CC1=C2 [Aminopotentidine-2-NB590] | 0.96 | 1.02 | 1.01 | 1.04 |  |
| CCOC(=O)c1cc(C#N)c(N2CCC(C(=O)NS(=O)(=O)Cc3ccccc3/C=C/C(=O)NCCNC(=O)CCc3ccc4n3[B-](F)(F)[N+]3=C(c5ccc[nH]5)C=CC3=C4)CC2)nc1C [AZD1283-1-NB590] |  |  |  |  | NanoBRET Fold Response (NPFFR1; NPFFR1, 0.1μM): 1.02; NanoBRET Fold Response (NPFFR1; NPFFR1, 1μM): 0.99; NanoBRET Fold Response (HTR2C; HTR2C, 0.1μM): 0.95; NanoBRET Fold Response (HTR2C; HTR2C, 1μM): 1.04 |
| CN(C)CCC=C1c2ccccc2CCc2ccc(C(=O)NCCNC(=O)CCOCCOCCOCCOCCNC(=O)CCc3ccc4n3[B-](F)(F)[N+]3=C(c5ccc[nH]5)C=CC3=C4)cc21 [Amitriptyline-b-2-NB590] |  |  |  |  | NanoBRET Fold Response (NPFFR1; tracer at 0.1μM): 0.98; NanoBRET Fold Response (HTR2C; tracer at 0.1μM, listed as amitriptyline-b-2-NB590): 1.74; NanoBRET Fold Response (HTR2C; tracer at 1μM, listed as amitriptyline-b-2-NB590): 2.18 |
| CN(C)CCC=C1c2ccccc2CCc2ccc(C(=O)NCCNC(=O)CCOCCOCCOCCOCCNC(=O)CCc3ccc4n3[B-](F)(F)[N+]3=C(c5ccc[nH]5)C=CC3=C4)cc21 [Amitriptyline-a-2-NB590] |  |  |  |  | NanoBRET Fold Response (HTR2C; tracer at 1μM): 1.80 |
| O=C(CCc1ccc2n1[B-](F)(F)[N+]1=C(c3ccc[nH]3)C=CC1=C2)NCCOCCOCCNC(=O)OCCOCCN1CCN(C2=Nc3ccccc3Sc3ccccc32)CC1 [Quetiapine-a-2-NB590] | 0.99 | 1.00 | 0.99 | 1.17 |  |
| Cc1cc2c(s1)Nc1ccccc1N=C2N1CCN(CCCNC(=O)CCOCCOCCOCCOCCNC(=O)CCc2ccc3n2[B-](F)(F)[N+]2=C(c4ccc[nH]4)C=CC2=C3)CC1 [Olanzapine-a-2-NB590] | 0.96 |  | 1.54 | 1.22 |  |
| CN1CCN(C2=Nc3cc(Cl)ccc3Nc3ccc(CNC(=O)CCOCCOCCOCCOCCNC(=O)CCc4ccc5n4[B-](F)(F)[N+]4=C(c6ccc[nH]6)C=CC4=C5)cc32)CC1 [Clozapine-b-2-NB590] |  |  |  |  | NanoBRET Fold Response (NPFFR1; NPFFR1, 0.1μM tracer): 1.00; NanoBRET Fold Response (NPFFR1; NPFFR1, 1μM tracer): 1.02 |
| COc1ccc2c(n1)c(CCNC(C)=O)cn2CCNC(=O)CCc1ccc2n1[B-](F)(F)[N+]1=C(c3ccc[nH]3)C=CC1=C2 [Azamelatonin-1-NB590] |  |  |  |  | NanoBRET Fold Response (NPFFR1; 0.1μM tracer): 0.99; NanoBRET Fold Response (NPFFR1; 1μM tracer): 0.91; NanoBRET Fold Response (HTR2C; 0.1μM tracer): 0.91; NanoBRET Fold Response (HTR2C; 1μM tracer): 0.91 |
| CN(CCC=C1c2ccccc2CCc2ccccc21)C(=O)CCOCCOCCOCCOCCNC(=O)CCc1ccc2n1[B-](F)(F)[N+]1=C(c3ccc[nH]3)C=CC1=C2 [Amitriptyline-e-2-NB590] |  |  |  |  | NanoBRET Fold Response (HTR2C; tracer at 1μM): 1.03 |
| O=C(CCc1ccc2n1[B-](F)(F)[N+]1=C(c3ccc[nH]3)C=CC1=C2)NCc1ccc(C(=O)NCCOCCOCCNCC(O)COc2cccc3ccccc23)cc1 (centres unmarked) [Propranolol-3-NB590] |  |  |  |  | NanoBRET Fold Response (NPFFR1; NPFFR1, 0.1μM): 1.01; NanoBRET Fold Response (NPFFR1; NPFFR1, 1μM): 0.99; NanoBRET Fold Response (HTR2C; HTR2C, 0.1μM): 1.22; NanoBRET Fold Response (HTR2C; HTR2C, 1μM): 1.21 |
